Assay results from patent US20020031795A1, “Nitrocoumarins for detecting all micro-organisms” (priority 1998, published 2002).

What was measured:
[1] = test system: E. coli (NCTC strain 10418); experiment: Fluorescent signal generated by E. coli reducing nitrocoumarins (nitroaryl reductase activity); type: cell-based, Escherichia coli
Experimental: A sample of the 7-nitrocoumarin derivative is dissolved in 4 ml of hot, distilled water. The mass dissolved to make the stock solution is such that the final concentration of the compound in the assay is 0.105 mmol/l. This solution is added to 96 ml of Mueller-Hinton broth and the mixture is sterile-filtered.
The E. coli was grown for 24 hours at 35° C. on Columbia agar supplemented with sheep blood. The bacteria were then resuspended in sterile, distilled water and their density was adjusted to 0.5 on the MacFarland scale (i.e. about 10^8 cells/ml). This suspension was then diluted 100-fold in sterile Mueller-Hinton broth (i.e. to a final density of about 10^6 cells/ml).
Fifty microliters of each nitrocoumarin solution plus 50 μl of bacterial suspension were then added to the wells of a microtiter plate. The plates were incubated at 35° C. and the optical density and fluorescence of each well was read every 30 min for a total of 4 hours. Optical density (690 nm) readings were made using an Anthos 2001 spectrophotometer (Labtech International Limited), and fluorescence (excitation at 365 nm and emission at 440 nm) readings were made on a Biolite F1 2001 fluorometer (Labtech International Limited).
The effect of the concentration of 7-nitrocoumarin-3-carboxylic acid on the sensitivity of the assay to detect E. coli (NCTC strain 10418) was investigated at concentrations of the indicator ranging from 0 to 0.262 mmol/l. All other conditions were identical to those described in section A above.

[2] = test system: Burkholderia cepacia (ATCC 25416); experiment: Fluorescence after 24 hours, serial dilutions in Trypticase Soy broth; type: cell-based
Experimental: (§1) This experiment was performed to test 7-nitrocoumarin-3-carboxylic acid on sixteen (16) different types of microorganism, including one yeast species.
(§2) A mass of 10 mg of the indicator was dissolved in 4 ml of hot, distilled water and this solution was then added to 96 ml of Trypticase Soy broth. The resultant mixture was sterile-filtered.
(§3) All the microorganisms were grown for 24 hours in Trypticase Soy broth at 35° C. Each culture was then diluted 1,000-fold in Trypticase Soy broth and then serial 10-fold dilutions were made in more Trypticase Soy broth until the test aliquot contained no more microbial cells.
(§4) The resultant dilutions ranged from 10^−3 to 10^−13.
(§5) Fifty microliters of each dilution plus 50 μl of Trypticase Soy broth were added to wells of a microtiter plate with or without 7-nitrocoumarin-3-carboxylic acid.
(§6) The plates were read (T zero) and then incubated at 35° C. before being read again after 24 hours. Two different readings were made at each time point:
(§7) of the fluorescence (excitation at 365 nm and emission at 440 nm), using a Biolite F1 2001 fluorometer (Labtech International Limited), for wells containing 7-nitrocoumarin-3-carboxylic acid.

[3] = test system: Shigella sonnei (NCTC 8586); experiment: as above; type: cell-based
Experimental: as §1, §2, §3, §4, §5, §6, §7

[4] = test system: Staphylococcus aureus (NCTC 6571); experiment: as above; type: cell-based
Experimental: as §1, §2, §3, §4, §5, §6, §7

SMILES: O=C(O)c1cc2ccc([N+](=O)[O-])cc2oc1=O [7-nitrocoumarin-3-carboxylic acid]
- Fluorescent signal ([1]; 0.005 mmol/l, 0 min): 0
- Fluorescent signal ([1]; 0.005 mmol/l, 30 min): −134
- Fluorescent signal ([1]; 0.005 mmol/l, 60 min): −164
- Fluorescent signal ([1]; 0.005 mmol/l, 90 min): −122
- Fluorescent signal ([1]; 0.005 mmol/l, 120 min): −94
- Fluorescent signal ([1]; 0.005 mmol/l, 150 min): −9
- Fluorescent signal ([1]; 0.005 mmol/l, 180 min): 406
- Fluorescent signal ([1]; 0.005 mmol/l, 210 min): 1307
- Fluorescent signal ([1]; 0.005 mmol/l, 240 min): 2466
- Fluorescent signal ([1]; 0.013 mmol/l, 0 min): 0
- Fluorescent signal ([1]; 0.013 mmol/l, 30 min): −113
- Fluorescent signal ([1]; 0.013 mmol/l, 60 min): −141
- Fluorescent signal ([1]; 0.013 mmol/l, 90 min): −76
- Fluorescent signal ([1]; 0.013 mmol/l, 120 min): −22
- Fluorescent signal ([1]; 0.013 mmol/l, 150 min): 174
- Fluorescent signal ([1]; 0.013 mmol/l, 180 min): 1068
- Fluorescent signal ([1]; 0.013 mmol/l, 210 min): 3073
- Fluorescent signal ([1]; 0.013 mmol/l, 240 min): 5902
- Fluorescent signal ([1]; 0.026 mmol/l, 0 min): 0
- Fluorescent signal ([1]; 0.026 mmol/l, 30 min): −91
- Fluorescent signal ([1]; 0.026 mmol/l, 60 min): −110
- Fluorescent signal ([1]; 0.026 mmol/l, 90 min): −39
- Fluorescent signal ([1]; 0.026 mmol/l, 120 min): 71
- Fluorescent signal ([1]; 0.026 mmol/l, 150 min): 467
- Fluorescent signal ([1]; 0.026 mmol/l, 180 min): 2311
- Fluorescent signal ([1]; 0.026 mmol/l, 210 min): 6028
- Fluorescent signal ([1]; 0.026 mmol/l, 240 min): 11387
- Fluorescent signal ([1]; 0.052 mmol/l, 0 min): 0
- Fluorescent signal ([1]; 0.052 mmol/l, 30 min): −83
- Fluorescent signal ([1]; 0.052 mmol/l, 60 min): −76
- Fluorescent signal ([1]; 0.052 mmol/l, 90 min): 33
- Fluorescent signal ([1]; 0.052 mmol/l, 120 min): 241
- Fluorescent signal ([1]; 0.052 mmol/l, 150 min): 861
- Fluorescent signal ([1]; 0.052 mmol/l, 180 min): 4004
- Fluorescent signal ([1]; 0.052 mmol/l, 210 min): 10584
- Fluorescent signal ([1]; 0.052 mmol/l, 240 min): 19530
- Fluorescent signal relative to that given by any of the other substrates ([1]; 0.105 mmol/l): more than twice as high
- Fluorescent signal ([1]; 0.105 mmol/l, 0 min): 0
- Fluorescent signal ([1]; 0.105 mmol/l, 30 min): −67
- Fluorescent signal ([1]; 0.105 mmol/l, 60 min): 4
- Fluorescent signal ([1]; 0.105 mmol/l, 90 min): 181
- Fluorescent signal ([1]; 0.105 mmol/l, 120 min): 586
- Fluorescent signal ([1]; 0.105 mmol/l, 150 min): 1694
- Fluorescent signal ([1]; 0.105 mmol/l, 180 min): 6724
- Fluorescent signal ([1]; 0.105 mmol/l, 210 min): 17495
- Fluorescent signal ([1]; 0.105 mmol/l, 240 min): 31314
- Extent of reduction of the substrate (in words) ([1]; 0.105 mmol/l, end of the four-hour assay): reduced to a far greater extent than any of the other nitrocoumarins
- Fluorescent signal ([1]; 0.157 mmol/l, 0 min): 0
- Fluorescent signal ([1]; 0.157 mmol/l, 30 min): −74
- Fluorescent signal ([1]; 0.157 mmol/l, 60 min): 48
- Fluorescent signal ([1]; 0.157 mmol/l, 90 min): 280
- Fluorescent signal ([1]; 0.157 mmol/l, 120 min): 811
- Fluorescent signal ([1]; 0.157 mmol/l, 150 min): 2231
- Fluorescent signal ([1]; 0.157 mmol/l, 180 min): 8264
- Fluorescent signal ([1]; 0.157 mmol/l, 210 min): 21022
- Fluorescent signal ([1]; 0.157 mmol/l, 240 min): 36517
- Fluorescent signal ([1]; 0.210 mmol/l, 0 min): 0
- Fluorescent signal ([1]; 0.210 mmol/l, 30 min): −6
- Fluorescent signal ([1]; 0.210 mmol/l, 60 min): 88
- Fluorescent signal ([1]; 0.210 mmol/l, 90 min): 354
- Fluorescent signal ([1]; 0.210 mmol/l, 120 min): 979
- Fluorescent signal ([1]; 0.210 mmol/l, 150 min): 2588
- Fluorescent signal ([1]; 0.210 mmol/l, 180 min): 9000
- Fluorescent signal ([1]; 0.210 mmol/l, 210 min): 21589
- Fluorescent signal ([1]; 0.210 mmol/l, 240 min): 37823
- Fluorescent signal ([1]; 0.262 mmol/l, 0 min): 0
- Fluorescent signal ([1]; 0.262 mmol/l, 30 min): 3
- Fluorescent signal ([1]; 0.262 mmol/l, 60 min): 131
- Fluorescent signal ([1]; 0.262 mmol/l, 90 min): 446
- Fluorescent signal ([1]; 0.262 mmol/l, 120 min): 1190
- Fluorescent signal ([1]; 0.262 mmol/l, 150 min): 3037
- Fluorescent signal ([1]; 0.262 mmol/l, 180 min): 9721
- Fluorescent signal ([1]; 0.262 mmol/l, 210 min): 22066
- Fluorescent signal ([1]; 0.262 mmol/l, 240 min): 37949
- Fluorescence reading ([2]; dilution 10^−3): 16978
- Fluorescence reading ([2]; dilution 10^−4): 16719
- Fluorescence reading ([2]; dilution 10^−5): 16808
- Fluorescence reading ([2]; dilution 10^−6): 15800
- Fluorescence reading ([2]; dilution 10^−7): 11973
- Fluorescence reading ([2]; dilution 10^−8): 1969
- Fluorescence reading ([2]; dilution 10^−9): 1996
- Fluorescence reading ([2]; dilution 10^−10): 1950
- Fluorescence reading ([2]; dilution 10^−11): 1925
- Fluorescence reading ([2]; dilution 10^−12): 1965
- Fluorescence reading ([2]; dilution 10^−13): 1914
- Fluorescence reading ([3]; dilution 10^−3): 51755
- Fluorescence reading ([3]; dilution 10^−4): 50254
- Fluorescence reading ([3]; dilution 10^−5): 50166
- Fluorescence reading ([3]; dilution 10^−6): 50278
- Fluorescence reading ([3]; dilution 10^−7): 49882
- Fluorescence reading ([3]; dilution 10^−8): 47370
- Fluorescence reading ([3]; dilution 10^−9): 1816
- Fluorescence reading ([3]; dilution 10^−10): 1990
- Fluorescence reading ([3]; dilution 10^−11): 1960
- Fluorescence reading ([3]; dilution 10^−12): 1956
- Fluorescence reading ([3]; dilution 10^−13): 1911
- Fluorescence reading ([4]; dilution 10^−3): 46607
- Fluorescence reading ([4]; dilution 10^−4): 45207
- Fluorescence reading ([4]; dilution 10^−5): 44544
- Fluorescence reading ([4]; dilution 10^−6): 43559
- Fluorescence reading ([4]; dilution 10^−7): 41437
- Fluorescence reading ([4]; dilution 10^−8): 1678
- Fluorescence reading ([4]; dilution 10^−9): 1666
- Fluorescence reading ([4]; dilution 10^−10): 1666
- Fluorescence reading ([4]; dilution 10^−11): 1620
- Fluorescence reading ([4]; dilution 10^−12): 1706
- Fluorescence reading ([4]; dilution 10^−13): 1669
